Test results reported in patent publication US20180071317A1, “USE OF AGENTS THAT ALTER THE PERITUMORAL ENVIRONMENT FOR THE TREATMENT OF CANCER” (SERVICIO ANDALUZ DE SALUD, priority 2011, published 2018).

Key:
[1] = system: human primary macrophages (PHM); assay: Marker expression (immunohistochemistry) in human primary macrophages with SP alone or with NK1 antagonists; type: cell-based; settings: SP 1 μM; 48 h
[2] = system: fibroblasts (PHF) co-cultured with human choriocarcinoma tumor cells (AC-1M32); assay: Marker expression (IHC) in PHF co-cultured with AC-1M32 tumor cells; type: cell-based; settings: co-culture with AC-1M32; SP 1 μM; 48 h;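 note: Read-out is the percentage of PHF fibroblasts positive for each marker, with cells grown in fresh healthy-donor blood plasma, six replicates, reference being fibroblasts cultured alone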
Procedure: (§1) All cultures were maintained 48 hours, following which the same cells were included in paraffin blocks for subsequent analysis of the expression of different markers by immunohistochemistry (see Example 1). […] All experiments were carried out sixfold. Analyzed markers in fibroblast cells (stromal cells) were: TGF-α, TGF-β1, TGF-β2, TGF-β3, SPARC, MMP-3, MMP-7, MMP-9, MMP-11, MMP-13 and MMP-14.

[3] = system: fibroblasts (PHF) co-cultivated with tumor cell carcinoma of urinary bladder (5637); assay: Marker expression (IHC) in PHF co-cultured with 5637 tumor cells; type: cell-based, human; settings: co-culture with 5637; SP 1 μM; 48 h
Procedure: as §1

[4] = system: fibroblasts (PHF) co-cultured with tumor cells of human pancreatic adenocarcinoma (CAPAN-1); assay: Marker expression (IHC) in PHF co-cultured with CAPAN-1 tumor cells; type: cell-based; settings: co-culture with CAPAN-1; SP 1 μM; 48 h;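 note: cultures grown in fresh plasma from a healthy human donor, run in six replicates, value is percent of fibroblasts positive for each marker, compared with fibroblasts cultured alone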
Procedure: All cultures were maintained 48 hours, following which the same cells were included in paraffin blocks for subsequent analysis of the expression of different markers by immunohistochemistry (see Example 1). The primary antibodies used to perform immunohistochemical assays and their concentration are detailed in Example 2. All experiments were carried out sixfold. Analyzed markers in fibroblast cells (stromal cells) were: TGF-α, TGF-β1, TGF-β2, TGF-β3, SPARC, MMP-3, MMP-7, MMP-9, MMP-11, MMP-13 and MMP-14.

[5] = system: human primary macrophages (PHM); assay: IL-8 Western blotting in human primary macrophages; type: cell-based; settings: cultured in the presence of SP
From the text: Further cells that make up the microenvironment are peritumoral macrophage lineage cells that are of great importance in the development of the microenvironment around the tumor, by interacting with tumor cells to stimulate their growth and spread by secretion into the medium of different markers that promote the expansion and growth of tumors. In this sense the next step was to analyze the effect exerted by the treatment with non-peptide NK1 antagonists in human primary macrophages (PHM) obtained and purified from pleural effusion samples obtained from men with chronic age range between 45 and 55 years. Briefly, the pleural fluid from chronic (rich in macrophages) was centrifuged. […]
Similar results were obtained in the case of TNF-α, respect to its expression to those obtained using the other markers analyzed: EGF, MMP-9 and VEGF, i.e., the treatment with the non-peptide receptor NK1 inhibited the TNF-α marker expression. Also the presence of IL-8 were determined by Western blotting, as explained in Example 1, using […] primary antibody (AB1427, Merck-Millipore).

[6] = system: fibroblasts (PHF) co-cultured with tumor cells of human breast carcinoma (MCF-7); assay: Marker expression (IHC) in PHF co-cultured with MCF-7 tumor cells; type: cell-based; settings: co-culture with MCF-7; SP 1 μM; 48 h;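 note: value is the percentage of fibroblasts positive for each marker, with fibroblasts cultured alone as reference, grown in fresh plasma from a healthy donor, six replicates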
Procedure: as §1

[7] = system: human primary fibroblasts (PHF); assay: Marker expression (immunohistochemistry) in human primary fibroblasts with SP alone or with NK1 antagonists; type: cell-based; settings: SP 1 μM; 48 h;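 note: primary human dermal fibroblasts, immunostained with rabbit polyclonal antibodies against each marker, value is percentage of stained cells among all cells counted in 20 fields at 400× per section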
Procedure: These PHF were obtained and purified from samples obtained from the dermis of the skin of healthy volunteers as described in De Bari et al (De Bari et al. 2001). Briefly, small pieces of skin dermis were digested in a solution of hyaluronidase (Sigma-Aldrich, USA) at a concentration of 1 mg/ml for 15 minutes at 37° C. and then treated with 6 mg/ml collagenase type IV (Invitrogen) for 2 hours at 37° C. Then, the cells were washed, resuspended in DMEM culture medium with high glucose (Dulbecco's Modified Eagle's Medium, Invitrogen) supplemented with 1% antibiotic-antimycotic (Invitrogen) and 1% pyruvate Sodium (Invitrogen), and seeded in culture dishes at a concentration of 10,000 cells per square centimeter. When the cells reached confluence, adherent cells were detached using 0.5% sterile trypsin (Invitrogen) and used between passages 3 and 9. For tests shown below, the PHF were plated in 24-well plates at a concentration of 25,000 cells per well.
After 48 hours of culture, cells were harvested and paraffin cell-blocks for immunohistochemical analysis were constructed, as previously explained in Example 1.
In immunohistochemical assays the expression of the following markers were studied: TGFα (SAB4502953), TGF1 (SAB4502954), TGFβ2 (SAB4502956), TGFβ3 (SAB4502957), SPARC (HPA002989), MMP-3 (HPA007875) MMP-7 (SAB4501894), MMP-9 (SAB4501896), MMP-11 (SAB4501898), MMP-13 (SAB4501900) and MMP-14 (SAB4501901) using specific antibodies against them. All antibodies used were rabbit polyclonal antibodies obtained from Sigma-Aldrich and were used at a concentration of 1/1000. All experiments were carried out sixfold.
On each of the six sections cell counts were performed in 20 high power fields (400×) through an Olympus microscope (model CX31) to assess the immunostaining. On each of the fields total cell number and number of cells displaying immunostaining were counted, being then the percentage of cells displaying said immunostaining.

[8] = system: leukocyte cells (mono and polymorphonuclear) in co-culture with cells isolated from primary human tumors; assay: Marker expression (IHC) in leukocytes co-cultured with primary human tumor cells (colon, pancreatic, lung carcinoma, glioma, melanoma); type: cell-based; settings: SP 1 μM;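 note: tumor cells and leukocytes came from the same patients, co-culture contents were paraffin-embedded for immunohistochemistry with antibodies to TGF-β2 or NF-kB, leukocytes cultured alone served as control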
Procedure: To check that the interaction of the human primary tumor cells with cells of the immune/inflammatory (mono and polymorphonuclear leukocytes) cells, stimulates the secretion of substances of importance for survival and tumor progression, cultures were carried out using sets of immune cells/inflammatory (mono and polymorphonuclear leukocytes) with tumor cells obtained directly from primary human tumors of the same patients.
The same method described in Example 7 and 9 was used to obtain tumor cells from primary human tumors. Similarly cultured immune cells/inflammatory (mono and polymorphonuclear leukocytes) were used as control and secondly, cultured tumor cells isolated from patients in the presence of immune cells/inflammatory (mono and polymorphonuclear leukocytes).
Then, paraffin blocks were prepared with the contents of each of the groups mentioned previously for expression studies using immunohistochemistry. On this occasion, in order to identify the secretion of substances with importance for the survival and progression of tumor the following markers were analyzed: TGF-β2 (SAB4502956) and NF-kB (SAB4501992) using specific antibodies against them. All antibodies used were rabbit polyclonal antibodies obtained from Sigma Aldrich and were used at a concentration of 1/1000. Immunohistochemical techniques were performed and evaluated as described in previous examples.

[9] = system: fibroblasts (PHF) co-cultured with tumor cells, ovarian carcinoma (EFO-27); assay: Marker expression (IHC) in PHF co-cultured with EFO-27 tumor cells; type: cell-based, human; settings: co-culture with EFO-27; SP 1 μM; 48 h;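 note: values are the percentage of PHF fibroblasts positive for each marker, cultured in fresh plasma from a healthy human donor, each experiment run in six replicates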
Procedure: as §1

[10] = co-culture with cells isolated from colon carcinoma
[11] = co-culture with cells isolated from glioma
[12] = co-culture with cells isolated from lung carcinoma
[13] = co-culture with cells isolated from melanoma
[14] = co-culture with cells isolated from pancreatic carcinoma

SMILES: CSCC[C@H](NC(=O)[C@H](CC(C)C)NC(=O)CNC(=O)[C@H](Cc1ccccc1)NC(=O)[C@H](Cc1ccccc1)NC(=O)[C@H](CCC(N)=O)NC(=O)[C@H](CCC(N)=O)NC(=O)[C@@H]1CCCN1C(=O)[C@H](CCCCN)NC(=O)[C@@H]1CCCN1C(=O)[C@@H](N)CCCNC(=N)N)C(N)=O [SP]
- macrophages expressing EGF [1]: 27.4 ± 1.1%
- macrophages expressing MMP-9 [1]: 24.3 ± 1.4%
- macrophages expressing VEGF [1]: 29.6 ± 2.1%
- PHF cells expressing MMP-3 [2]: 45.4 ± 2.7%
- PHF cells expressing MMP-7 [2]: 57.1 ± 3.8%
- PHF cells expressing MMP-9 [2]: 56.3 ± 2.4%
- PHF cells expressing MMP-11 [2]: 28.4 ± 2.8%
- PHF cells expressing MMP-13 [2]: 47 ± 3.7%
- PHF cells expressing MMP-14 [2]: 51.2 ± 4.5%
- PHF cells expressing SPARC [2]: 46 ± 3.1%
- PHF cells expressing TGF-α [2]: 41.4 ± 1.1%
- PHF cells expressing TGF-β1 [2]: 36.5 ± 2.1%
- PHF cells expressing TGF-β2 [2]: 53.5 ± 3.1%
- PHF cells expressing TGF-β3 [2]: 46 ± 3%
- PHF cells expressing MMP-3 [3]: 44.5 ± 2.7%
- PHF cells expressing MMP-7 [3]: 55.4 ± 3.8%
- PHF cells expressing MMP-9 [3]: 53.3 ± 4.4%
- PHF cells expressing MMP-11 [3]: 26.5 ± 1.8%
- PHF cells expressing MMP-13 [3]: 44.5 ± 2.5%
- PHF cells expressing MMP-14 [3]: 47.1 ± 3.5%
- PHF cells expressing SPARC [3]: 47.4 ± 2.2%
- PHF cells expressing TGF-α [3]: 42.4 ± 1.1%
- PHF cells expressing TGF-β1 [3]: 43.6 ± 1.1%
- PHF cells expressing TGF-β2 [3]: 44.3 ± 1.1%
- PHF cells expressing TGF-β3 [3]: 42.3 ± 1.2%
- PHF cells expressing MMP-3 [4]: 44.4 ± 1.6%
- PHF cells expressing MMP-7 [4]: 58.2 ± 2.4%
- PHF cells expressing MMP-9 [4]: 56.4 ± 1.5%
- PHF cells expressing MMP-11 [4]: 25.3 ± 1.5%
- PHF cells expressing MMP-13 [4]: 55 ± 3.6%
- PHF cells expressing MMP-14 [4]: 47.2 ± 4.7%
- PHF cells expressing SPARC [4]: 49 ± 1.4%
- PHF cells expressing TGF-α [4]: 42.4 ± 2.1%
- PHF cells expressing TGF-β1 [4]: 37.6 ± 1.4%
- PHF cells expressing TGF-β2 [4]: 42.4 ± 6.1%
- PHF cells expressing TGF-β3 [4]: 43 ± 2.6%
- IL-8 expression in macrophages, Western blotting (in words) [5]: showed expression of this marker
- PHF cells expressing MMP-3 [6]: 44.5 ± 1.8%
- PHF cells expressing MMP-7 [6]: 57.1 ± 2.7%
- PHF cells expressing MMP-9 [6]: 55.3 ± 1.7%
- PHF cells expressing MMP-11 [6]: 25.4 ± 2.7%
- PHF cells expressing MMP-13 [6]: 46 ± 3.6%
- PHF cells expressing MMP-14 [6]: 48.2 ± 3.5%
- PHF cells expressing SPARC [6]: 49 ± 1.5%
- PHF cells expressing TGF-α [6]: 42.6 ± 1.1%
- PHF cells expressing TGF-β1 [6]: 43.2 ± 1%
- PHF cells expressing TGF-β2 [6]: 42.6 ± 2.1%
- PHF cells expressing TGF-β3 [6]: 46 ± 1.7%
- PHF cells expressing MMP-3 [7]: 33.9 ± 2.2%
- PHF cells expressing MMP-7 [7]: 46.2 ± 2.3%
- PHF cells expressing MMP-9 [7]: 35.5 ± 2.5%
- PHF cells expressing MMP-11 [7]: 7.8 ± 2.9%
- PHF cells expressing MMP-13 [7]: 17.1 ± 2.6%
- PHF cells expressing MMP-14 [7]: 47.3 ± 2.5%
- PHF cells expressing SPARC [7]: 16 ± 1.9%
- PHF cells expressing TGFα [7]: 16.5 ± 1.2%
- PHF cells expressing TGFβ 1 [7]: 18.4 ± 1.3%
- PHF cells expressing TGFβ 2 [7]: 24.6 ± 1.4%
- PHF cells expressing TGFβ 3 [7]: 23.1 ± 1.7%
- Percentage of mononuclear leukocytes cells which expressed NF-kB [8, 10]: 47.5 ± 4.6%
- Percentage of mononuclear leukocytes cells which expressed TGF-β [8, 10]: 36.5 ± 3.5%
- Percentage of polymorphonuclear leukocytes cells which expressed NF-kB [8, 10]: 36.6 ± 4.7%
- Percentage of polymorphonuclear leukocytes cells which expressed TGF-β [8, 10]: 45.8 ± 3.5%
- Percentage of mononuclear leukocytes cells expressing NF-kB [8, 11]: 41.6 ± 4.1%
- Percentage of mononuclear leukocytes cells expressing TGF-β [8, 11]: 41.7 ± 3.4%
- Percentage of polymorphonuclear leukocytes cells expressing NF-kB [8, 11]: 39.4 ± 4.2%
- Percentage of polymorphonuclear leukocytes cells expressing TGF-β [8, 11]: 39.7 ± 3.3%
- Percentage of mononuclear leukocytes cells which expressed NF-kB [8, 12]: 41.6 ± 4.2%
- Percentage of mononuclear leukocytes cells which expressed TGF-β [8, 12]: 42.7 ± 3.3%
- Percentage of polymorphonuclear leukocytes cells which expressed NF-kB [8, 12]: 35.5 ± 4.2%
- Percentage of polymorphonuclear leukocytes cells which expressed TGF-β [8, 12]: 38.7 ± 3.3%
- Percentage of mononuclear leukocytes cells which expressed NF-kB [8, 13]: 51.7 ± 5.3%
- Percentage of mononuclear leukocytes cells which expressed TGF-β [8, 13]: 49.6 ± 4.2%
- Percentage of polymorphonuclear leukocytes cells which expressed NF-kB [8, 13]: 56.6 ± 4.6%
- Percentage of polymorphonuclear leukocytes cells which expressed TGF-β [8, 13]: 54.5 ± 3.5%
- Percentage of mononuclear leukocytes cells which expressed TGF-β [8, 14]: 39.5 ± 4.5%
- Percentage of polymorphonuclear leukocytes cells which expressed NF-kB [8, 14]: 35.4 ± 4.2%
- Percentage of polymorphonuclear leukocytes cells which expressed TGF-β [8, 14]: 36.5 ± 3.1%
- PHF cells expressing MMP-3 [9]: 44.4 ± 1.5%
- PHF cells expressing MMP-7 [9]: 55.1 ± 2.6%
- PHF cells expressing MMP-9 [9]: 56.6 ± 1.7%
- PHF cells expressing MMP-11 [9]: 22.4 ± 2.6%
- PHF cells expressing MMP-13 [9]: 55 ± 2.5%
- PHF cells expressing MMP-14 [9]: 46.2 ± 2.5%
- PHF cells expressing SPARC [9]: 46 ± 2.2%
- PHF cells expressing TGF-α [9]: 37.2 ± 2.1%
- PHF cells expressing TGF-β1 [9]: 35.5 ± 2.1%
- PHF cells expressing TGF-β2 [9]: 45.4 ± 1.2%
- PHF cells expressing TGF-β3 [9]: 42 ± 1.6%
